Columns and labels:
[1] = Sucrose solubility in sodium-lamp conditioned vs control water at room temperature (22° C.); assay type: physicochemical
Experimental: Beaker “II” was placed under another sodium lamp 12 as like Beaker “KK”; and Beaker “JJ” was placed in the same incubator as Beaker “LL”. […] Specifically, Beaker “GG” was placed under another sodium lamp 12 as like Beaker “KK” and Beaker “II”; and Becker “HH” was placed into the same incubator as Beaker “LL” and “II”.

[2] = Phenyl salicylate solubility in neon-lamp conditioned vs unconditioned acetone at room temperature; assay type: physicochemical; conditions: about 20 hours equilibration
Experimental: Acetone (about 1 ml) was pipetted into small glass test tubes and stoppers placed in the tube. Tubes were placed under a neon lam; (about 8m/cm^2) in an otherwise dark room for about 1-5 hours at about 28° C. ambient temperature. Tubes were also placed simultaneously in an incubator at 28° C. for about 1.5 hours.
Phenyl solicylate (about 3.50 grams) was added to each tube leaving a layer undissolved on the bottom of each tube. The solutions were allowed to equilibrate (about 20 hours). Solution was filtered over the crystals and 0.500 ml pipetted into fresh tubes.
After the acetone evaporated, dry weights of phenyl solicylate per ml dissolved in conditioned and unconditioned acetone were determined.

SMILES | Weight (dry sucrose weight per 100 ml solution) ([1]; Beaker GG, water under sodium lamp one hour, solution at 23.5° C.) [g/100 ml] | Weight (dry sucrose weight per 100 ml solution) ([1]; Beaker HH, control water 1 hour in incubator, solution at 23° C.) [g/100 ml] | Weight (dry sucrose weight per 100 ml solution) ([1]; Beaker II, water under sodium lamp two hours, solution at 23.5° C.) [g/100 ml] | Weight (dry sucrose weight per 100 ml solution) ([1]; Beaker JJ, control water 2 hours in incubator, solution at 23.5° C.) [g/100 ml] | Weight (dry sucrose weight per 100 ml solution) ([1]; Beaker KK, water under Na lamp three hours, solution at 23.5° C.) [g/100 ml] | Weight (dry sucrose weight per 100 ml solution) ([1]; Beaker LL, control water 3 hours in incubator, solution at 23.5° C.) [g/100 ml] | more sucrose dissolved by conditioned water than by untreated control water ([1]; two hours exposure of water to the sodium lamp) | Average amount of phenyl salicylate dissolved ([2]; acetone conditioned under neon lamp) [g/mL] | Average amount of phenyl salicylate dissolved ([2]; unconditioned acetone (incubator 28° C.)) [g/mL]
OC[C@H]1O[C@@](CO)(O[C@H]2O[C@H](CO)[C@@H](O)[C@H](O)[C@H]2O)[C@@H](O)[C@@H]1O [Sucrose] | 49 | 49 | 47 | 44 | 46 | 49 | about 7% | – | –
O=C(Oc1ccccc1)c1ccccc1O [phenyl salicylate] | – | – | – | – | – | – | – | 0.78 | 0.68
